Measured values: patent US7884082B2, “Combined therapeutical treatment of hyperproliferative diseases” (Aventis Pharma SA, priority 1995, dated 2011)

Key:
H460 cells [1] = experiment: Sensitivity of transfected H460 cells to taxotere, cisplatin or camptothecin (colony count, Example 2); assay type: cell-based, human; conditions: for apoptotic effect induced by the GAP (170-702) construction on addition of the product: added to culture medium of human tumour cells transfected with GAP(170-702), at concentrations without effect on cell viability; for apoptotic effect induced by the transfer of the Grb3-3 gene on addition of the product: added to culture medium of human tumour cells transfected with Grb3-3, at concentrations without effect on cell viability; for effect of the product alone on cell viability: concentrations used in the combination, human tumour cells
Source text: H460 cells transfected as described in Example 1 are subjected during selection by geneticin to a treatment for several days at different concentrations of taxotere, of cisplatin or of camptothecin. The H460/Neo^R cells and which are resistant to the chemotherapeutic agents are quantified as described in Example 1. The sensitivity to taxotere (A), to cisplatin (B) or to camptothecin (C) of the H460 cells transfected with pSV2-Neo (●), pSV2-Neo+pSV2-GAP[170-702] (▴) or pSV2-Neo+pSV2-Grb3-3 (▾) is depicted relative to cells transfected identically but in the absence of treatment with the chemotherapeutic agents. The results of an experiment which is representative of quantification of the number of colony after the different treatments mentioned are summarized in FIG. 2.

H460 cells [2] = experiment: Sensitivity of isolated H460 clones transfected with pcDNA3 or pcDNA3-p53WT to taxotere (Example 3); assay type: cell-based, human
Source text: H460 cells are transfected with cDNA coding for the wild-type p53 protein (p53^WT) placed in the plasmid pcDNA3 under the control of the CMV promoter. Plasmid pcDNA3 also contains the Neo gene placed under the control of the SV40 promoter. Cells transfected with pcDNA3 or pcDNA3-p53^WT are selected and isolated as described in Example 1. In the cells transfected with pcDNA3-p53^WT and which are resistant to geneticin, the presence of p53 is verified by western blotting using specific antibodies. FIG. 3 summarizes the results of a representative experiment in which are depicted, on the one hand the number of colonies obtained after pcDNA3 or pcDNA3-p53^WT transfection (A), and on the other hand the sensitivity of the clones isolated to a treatment with taxotere (B).

[3] = system: various tumour cell lines; conditions: various tumour cell lines in culture; cited from earlier work

SMILES	apoptotic effect induced by the GAP (170-702) construction on addition of the product (H460 cells [1])	apoptotic effect induced by the transfer of the Grb3-3 gene on addition of the product (H460 cells [1])	effect of the product alone on cell viability (H460 cells [1])	effect of taxotere on H460 clones expressing wild-type p53 (H460 cells [2]; H460 clones resistant to the effect of p53, increasing doses of taxotere)	effect of taxotere on cells that do not express wild-type p53 (H460 cells [2]; same concentrations as those killing p53-expressing clones)	induction of apoptosis [3]
N.N.[Cl][Pt][Cl] [cisplatin]	very greatly increased	very greatly increased	without effect on cell viability	–	–	–
CC(=O)O[C@@]12CO[C@@H]1C[C@H](O)[C@@]1(C)C(=O)[C@H](O)C3=C(C)[C@@H](OC(=O)[C@H](O)[C@@H](NC(=O)OC(C)(C)C)c4ccccc4)C[C@@](O)([C@@H](OC(=O)c4ccccc4)[C@H]21)C3(C)C [taxotere, 4-acetoxy-2α-benzoyloxy-5β,20-epoxy-1β,7β,10β-trihydroxy-9-oxo-11-taxen-13α-yl (2R,3S)-3′-t-butoxycarbonylamino-3′-phenyl-2′-hydroxypropionate]	very greatly increased	very greatly increased	without effect on cell viability	cells die	completely ineffective	–
CC[C@@]1(O)C(=O)OCc2c1cc1n(c2=O)Cc2cc3ccccc3nc2-1 [camptothecin]	very greatly increased	very greatly increased	without effect on cell viability	–	–	–
CC(=O)O[C@H]1C(=O)[C@@]2(C)[C@H]([C@H](OC(=O)c3ccccc3)[C@]3(O)C[C@H](OC(=O)[C@H](O)[C@@H](NC(=O)c4ccccc4)c4ccccc4)C(C)=C1C3(C)C)[C@]1(OC(C)=O)CO[C@@H]1C[C@@H]2O [Taxol, 4,10β-diacetoxy-2α-benzoyloxy-5β,20-epoxy-1β,7β-dihydroxy-9-oxo-11-taxen-13α-yl (2R,3S)-3′-benzoylamino-3′-phenyl-2′-hydroxypropionate]	–	–	–	–	–	induces apoptosis
